One test concerns the target cdk2/cyclinE (Homo sapiens, UniProt P24941). Kind of test: Cyclin-Dependent Kinase Assay cdk2/cyclinE. The conditions noted are these: cdk2/E IC50.
The target in a further test is cdk2/cyclinA (Homo sapiens, UniProt P24941). Kind of test: Cyclin-Dependent Kinase Assay cdk2/cyclinA. Particulars: cdk2/A IC50.
In a further test the target is cdc2/cyclinB (Homo sapiens, UniProt P06493). Kind of test: Cyclin-Dependent Kinase Assay cdc2/cyclinB.
In a further test the target is Cdk5/p25 (Homo sapiens, UniProt Q00535). Kind of test: Cyclin-Dependent Kinase 5 High Throughput Screening (cdk5-HTS) Assay. Format: biochemical. The conditions noted are these: high throughput screen. In outline:
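Cdk5/p25 (1.0 μg/mL) phosphorylates GST-RbCOOH (20 μg/mL) in 50 mM Tris pH 7.4 with 10 mM MgCl2 and 20 μM ATP spiked with [γ33P]ATP, 30 min at room temperature. After EDTA stop, substrate captured on glutathione-coated plates; 33P incorporation counted by scintillation; IC50 determined.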

The target of a further test is cdk4/D (Homo sapiens, UniProt P11802). Briefly: Cyclin-Dependent Kinase 4 (cdk4) Assay. The format is biochemical. The conditions noted are these: read-out: cdk4/D IC50.

We go through 23 compounds from patent US20040224958A1, “Pyridopyrimidinone derivatives for treatment of neurodegenerative disease” (priority 2000, published 2004).

cdk4/D, sequence (P11802 whole entry): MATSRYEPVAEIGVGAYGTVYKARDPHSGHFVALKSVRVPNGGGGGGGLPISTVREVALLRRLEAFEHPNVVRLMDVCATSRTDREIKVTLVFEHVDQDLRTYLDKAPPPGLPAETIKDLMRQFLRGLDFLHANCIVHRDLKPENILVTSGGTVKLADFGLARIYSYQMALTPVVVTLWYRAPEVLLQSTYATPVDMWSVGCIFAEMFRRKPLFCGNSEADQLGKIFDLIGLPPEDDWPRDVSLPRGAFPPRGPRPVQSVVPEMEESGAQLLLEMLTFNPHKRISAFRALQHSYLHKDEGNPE
cdk4/D, sequence (P24385 whole entry, further chain): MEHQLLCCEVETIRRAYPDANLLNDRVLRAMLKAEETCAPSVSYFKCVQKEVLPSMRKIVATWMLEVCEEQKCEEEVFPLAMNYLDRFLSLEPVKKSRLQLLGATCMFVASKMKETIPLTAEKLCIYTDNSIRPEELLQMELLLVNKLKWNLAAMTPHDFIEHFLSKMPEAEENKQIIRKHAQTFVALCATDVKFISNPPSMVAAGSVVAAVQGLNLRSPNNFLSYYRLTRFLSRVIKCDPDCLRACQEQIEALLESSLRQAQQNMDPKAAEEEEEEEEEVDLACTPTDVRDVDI
cdc2/cyclinB, sequence (P06493 whole entry): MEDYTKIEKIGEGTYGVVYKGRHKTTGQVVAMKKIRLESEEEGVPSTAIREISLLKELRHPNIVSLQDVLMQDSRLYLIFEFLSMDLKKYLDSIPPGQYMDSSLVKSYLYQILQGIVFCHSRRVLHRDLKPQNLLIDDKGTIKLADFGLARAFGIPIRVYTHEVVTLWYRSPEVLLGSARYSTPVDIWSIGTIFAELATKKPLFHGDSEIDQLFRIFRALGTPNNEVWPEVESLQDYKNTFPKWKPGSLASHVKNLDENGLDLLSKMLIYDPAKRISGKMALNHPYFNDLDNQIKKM
cdc2/cyclinB, sequence (P14635 whole entry, further chain): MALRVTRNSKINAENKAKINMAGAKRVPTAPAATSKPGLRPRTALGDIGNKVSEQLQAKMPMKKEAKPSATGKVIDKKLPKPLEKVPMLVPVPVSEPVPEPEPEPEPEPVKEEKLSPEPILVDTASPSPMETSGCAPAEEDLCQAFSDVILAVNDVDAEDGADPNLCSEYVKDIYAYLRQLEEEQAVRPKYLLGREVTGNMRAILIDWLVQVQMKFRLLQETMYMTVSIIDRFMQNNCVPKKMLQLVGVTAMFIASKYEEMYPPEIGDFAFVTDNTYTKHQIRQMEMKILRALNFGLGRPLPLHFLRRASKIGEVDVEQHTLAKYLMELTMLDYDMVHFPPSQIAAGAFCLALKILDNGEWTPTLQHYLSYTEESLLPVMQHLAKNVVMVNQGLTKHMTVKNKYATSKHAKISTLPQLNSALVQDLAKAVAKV

Consider `CCC(CC)n1c(=O)ccc2cnc(Nc3ccc(Cl)c(Cl)c3)nc21` [Example 511, 2-(3,4-Dichloro-phenylamino)-8-(1-ethyl-propyl)-8H-pyrido[2,3-d]pyrimidin-7-one], for which the IC50 came out at 160 nM against cdk2/cyclinE; 290 nM against cdk2/cyclinA; 140 nM on cdc2/cyclinB; 50 nM against Cdk5/p25; 220 nM at cdk4/D.
In the case of `CCC(CC)n1c(=O)ccc2cnc(Nc3cccc(O)c3)nc21` [Example 512, 8-(1-Ethyl-propyl)-2-(3-hydroxy-phenylamino)-8H-pyrido[2,3-d]pyrimidin-7-one], the IC50 was 56 nM against cdk2/cyclinE; 120 nM against cdk2/cyclinA; 39 nM at cdc2/cyclinB; 83 nM against Cdk5/p25; 2200 nM on cdk4/D.
For `CCC(CC)n1c(=O)ccc2cnc(Nc3ccc(NC(C)=O)c(C)c3)nc21` [Example 513, N-{4-[8-(1-Ethyl-propyl)-7-oxo-7,8-dihydro-pyrido[2,3-d]pyrimidin-2-ylamino]-2-methyl-phenyl}-acetamide], the IC50 worked out at 330 nM against cdk2/cyclinE; 630 nM against cdk2/cyclinA; 160 nM on cdc2/cyclinB; 110 nM against Cdk5/p25; 830 nM at cdk4/D.
For the compound `CCC(CC)n1c(=O)ccc2cnc(Nc3ccc(OC(F)(F)F)cc3)nc21` [Example 515, 8-(1-Ethyl-propyl)-2-(4-trifluoromethoxy-phenylamino)-8H-pyrido[2,3-d]pyrimidin-7-one], the IC50 is 230 nM against cdk2/cyclinE; 670 nM against cdk2/cyclinA; 480 nM against cdc2/cyclinB; 71 nM at Cdk5/p25; 200 nM at cdk4/D.
With `CCC(CC)n1c(=O)ccc2cnc(Nc3ccc4[nH]c5ccccc5c4c3)nc21` [Example 516, 2-(9H-Carbazol-3-ylamino)-8-(I-ethyl-propyl)-8H-pyrido[2,3-d]pyrimidin-7-one], the IC50 against cdk2/cyclinE amounted to 95 nM; against cdk2/cyclinA, 280 nM; on cdc2/cyclinB, 62 nM; at Cdk5/p25 it was 33 nM; on cdk4/D it was 28 nM.
On to `CCC(CC)n1c(=O)ccc2cnc(Nc3ccc4oc(=O)[nH]c4c3)nc21` [Example 517, 8-(1-Ethyl-propyl)-2-(2-oxo-2,3-dihydro-benzoxazol-5-ylamino)-8H-pyrido[2,3-d]pyrimidin-7-one], for which the IC50 on cdk2/cyclinE stood at 29 nM; against cdk2/cyclinA it was 56 nM; against cdc2/cyclinB it was 62 nM; at Cdk5/p25, 18 nM; at cdk4/D, 130 nM.
On to `CCC(CC)n1c(=O)ccc2cnc(Nc3ccc4cn[nH]c4c3)nc21` [Example 518, 8-(1-Ethyl-propyl)-2-(1H-indazol-6-ylamino)-8H-pyrido[2,3-d]pyrimidin-7-one], for which the IC50 on cdk2/cyclinE came to 53 nM; on cdk2/cyclinA, 57.5 nM; at cdc2/cyclinB, 31.5 nM; at Cdk5/p25 it was 17.5 nM; at cdk4/D, 365 nM.
The like results for `CCC(CC)n1c(=O)ccc2cnc(Nc3ccc(C)c(NS(C)(=O)=O)c3)nc21` [Example 519, N-{5-[8-(1-Ethyl-propyl)-7-oxo-7,8-dihydro-pyrido[2,3-d]pyrimidin-2-ylamino]-2-methyl-phenyl}-methanesulfonamide] were, in that order, 140 nM, 310 nM, 47 nM, 33 nM and 150 nM.
Turning to `CCC(CC)n1c(=O)ccc2cnc(Nc3ccc4c(c3)NC(=O)CS4)nc21` [Example 520, 8-(1-Ethyl-propyl)-2-(3-oxo-3,4-dihydro-2H-1,4-benzothiazin-6ylamino)-8H-pyrido[2,3-d]pyrimidin-7-one], the IC50 against cdk2/cyclinE was found to be 41 nM; on cdk2/cyclinA, 86 nM; against cdc2/cyclinB, 51 nM; on Cdk5/p25 it was 9.8 nM; on cdk4/D, 120 nM.
Turning to `CCC(CC)n1c(=O)ccc2cnc(Nc3cc(Cl)c(N)c(Cl)c3)nc21` [Example 521, 2-(4-Amino-3,5-dichloro-phenylamino)-S-(1-ethyl-propyl)-8H-pyrido[2,3-d]pyrimidin-7-one], the IC50 against cdk2/cyclinE came out at 98 nM; at cdk2/cyclinA, 220 nM; on cdc2/cyclinB, 67 nM; against Cdk5/p25 it was 42 nM; on cdk4/D it was 67 nM.
`CCC(CC)n1c(=O)ccc2cnc(Nc3ccc(C)c(NC(C)=O)c3)nc21` [Example 522, N-{5-[8-(1-Ethyl-propyl)-7-oxo-7,8-dihydro-pyrido[2,3-d]pyrimidin-2-ylamino]-2-methyl-phenyl}-acetamide]: the IC50 against cdk2/cyclinE turned out to be 320 nM; on cdk2/cyclinA it was 1600 nM; on cdc2/cyclinB, 1100 nM; against Cdk5/p25, 300 nM; at cdk4/D it was 360 nM.
`CCC(CC)n1c(=O)ccc2cnc(Nc3cc(C)c(O)c(C)c3)nc21` [Example 523, 8-(1-Ethyl-propyl)-2-(4-hydroxy-3,5-dimethyl-phenylamino)-8H-pyrido[2,3-d]pyrimidin-7-one]: the IC50 on cdk2/cyclinE worked out at 46 nM; on cdk2/cyclinA, 160 nM; against cdc2/cyclinB, 93 nM; against Cdk5/p25, 28 nM; at cdk4/D, 390 nM.
For `CCC(CC)n1c(=O)ccc2cnc(Nc3ccc(O)c(C(=O)O)c3)nc21` [Example 524, 5-[8-(1-Ethyl-propyl)-7-oxo-7,8-dihydro-pyrido[2,3-d]pyrimidin-2-ylamino]-2-hydroxy-benzoic acid] the same measures were 450 nM, 650 nM, 620 nM, 290 nM and 2000 nM.
As for `CCC(CC)n1c(=O)ccc2cnc(Nc3ccc4c(c3)CCC4)nc21` [Example 525, 8-(I-Ethyl-propyl)-2-(indan-5-ylamino)-8H-pyrido[2,3-d]pyrimidin-7-one], the IC50 is 110 nM against cdk2/cyclinE; 290 nM on cdk2/cyclinA; 99 nM against cdc2/cyclinB; 27 nM against Cdk5/p25; 1200 nM at cdk4/D.
Consider `CCC(CC)n1c(=O)ccc2cnc(Nc3ccc(C(F)(F)F)cc3)nc21` [Example 526, 8-(1-Ethyl-propyl)-2-(4-trifluoromethyl-phenylamino)-8H-pyrido[2,3-d]pyrimidin-7-one], for which the IC50 on cdk2/cyclinE was 200 nM; against cdk2/cyclinA, 160 nM; on cdc2/cyclinB, 140 nM; at Cdk5/p25, 88 nM; on cdk4/D, 85 nM.
The like results for `O=c1ccc2cnc(Nc3ccc4[nH]ccc4c3)nc2n1C1CCCC1` [Example 528, 8-Cyclopentyl-2-(1H-indol-5-ylamino)-8H-pyrido[2,3-d]pyrimidin-7-one] were, in that order, 46.5 nM, 74 nM, 34.5 nM, 36.3 nM and 12.7 nM.
As to `O=c1ccc2cnc(Nc3ccc4cn[nH]c4c3)nc2n1C1CCCC1` [Example 529, 8-Cyclopentyl-2-(1H-indazol-6-ylamino)-8H-pyrido[2,3-d]pyrimidin-7-one], the IC50 turned out to be 24 nM against cdk2/cyclinE; 35.5 nM against cdk2/cyclinA; 82.5 nM at cdc2/cyclinB; 32 nM at Cdk5/p25; 31 nM on cdk4/D.
The like results for `O=c1ccc2cnc(Nc3cccc(C(F)(F)F)c3)nc2n1C1CCCC1` [Example 530, 8-Cyclopentyl-2-(3-trifluoromethyl-phenylamino)-8H-pyrido[2,3-d]pyrimidin-7-one] were, in that order, 180 nM, 250 nM, 220 nM, 99 nM and 1700 nM.
As for `N#Cc1ccc(Nc2ncc3ccc(=O)n(C4CCCC4)c3n2)cc1` [Example 531, 4-(8-Cyclopentyl-7-oxo-7,8-dihydro-pyrido[2,3-d]pyrimidin-2-ylamino)-benzonitrile], the IC50 against cdk2/cyclinE stood at 100 nM; against cdk2/cyclinA, 74 nM; against cdc2/cyclinB, 170 nM; against Cdk5/p25, 50 nM; at cdk4/D, 51 nM.
The like results for `O=c1ccc2cnc(Nc3ccc(Cl)c(Cl)c3)nc2n1C1CCCC1` [Example 532, 8-Cyclopentyl-2-(3,4-dichloro-phenylamino)-8H-pyrido[2,3-d]pyrimidin-7-one] were, in that order, 630 nM, 780 nM, 510 nM, 210 nM and 1500 nM.
Take `O=c1ccc2cnc(Nc3ccc(C(F)(F)F)cc3)nc2n1C1CCCC1` [Example 533, 8-Cyclopentyl-2-(4-trifluoromethyl-phenylamino)-81H-pyrido[2,3-d]pyrimidin-7-one]: the IC50 on cdk2/cyclinE worked out at 140 nM; against cdk2/cyclinA, 330 nM; on cdc2/cyclinB it was 250 nM; on Cdk5/p25, 66 nM; on cdk4/D it was 150 nM.
The like results for `CC(C)(C)OC(=O)Nc1ccc(Nc2ncc3ccc(=O)n(C4CCCC4)c3n2)cc1` [Example 535, [4-(8-Cyclopentyl-7-oxo-7,8-dihydro-pyrido[2,3-d]pyrimidin-2-ylamino)-phenyl]-carbamic acid tert-butyl ester] were, in that order, 88.7 nM, 220 nM, 145 nM, 74 nM and 63.5 nM.
The like results for `O=c1ccc2cnc(Nc3ccc4[nH]ncc4c3)nc2n1C1CCCC1` [Example 536, 8-Cyclopentyl-2-(1H-indazol-5-ylamino)-8H-pyrido[2,3-d]pyrimidin-7-one] were, in that order, 14 nM, 31.5 nM, 18.5 nM, 19.7 nM and 25 nM.
